Laboratory results taken from PubChem BioAssay (NCI).
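Interpolation was linear, between the two tested concentrations surrounding the appropriate level; five concentrations were tested over 48 hours in 96-well plates. Here, GI50 denotes the concentration required for 50% inhibition of growth. The concentration for full growth arrest is given as TGI.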

Tests used:
Test in all cases: growth of human tumour cells (NCI), 48 h
SF-268 CNS = test system: SF-268 CNS
MDA-MB-231 breast = test system: MDA-MB-231 breast
NCI-H522 lung = test system: NCI-H522 lung
SF-295 CNS = test system: SF-295 CNS
HOP-62 NSCLC = test system: HOP-62 NSCLC
UACC-62 melanoma = test system: UACC-62 melanoma
SNB-75 CNS = test system: SNB-75 CNS
HS 578T breast = test system: HS 578T breast
K-562 leukemia = test system: K-562 leukemia
SK-OV-3 ovarian = test system: SK-OV-3 ovarian
BT-549 breast = test system: BT-549 breast
IGROV1 ovarian = test system: IGROV1 ovarian
HOP-92 NSCLC = test system: HOP-92 NSCLC
SNB-19 CNS = test system: SNB-19 CNS
MALME-3M melanoma = test system: MALME-3M melanoma
786-0 renal = test system: 786-0 renal
RXF 393 renal = test system: RXF 393 renal
EKVX NSCLC = test system: EKVX NSCLC
TK-10 renal = test system: TK-10 renal
MDA-MB-435 = test system: MDA-MB-435
SN12C renal = test system: SN12C renal
PC-3 prostate = test system: PC-3 prostate
OVCAR-5 ovarian = test system: OVCAR-5 ovarian
SR leukemia = test system: SR leukemia
SK-MEL-28 melanoma = test system: SK-MEL-28 melanoma
UO-31 renal = test system: UO-31 renal
MCF7 breast = test system: MCF7 breast
OVCAR-8 ovarian = test system: OVCAR-8 ovarian
OVCAR-4 ovarian = test system: OVCAR-4 ovarian
NCI/ADR-RES ovarian = test system: NCI/ADR-RES ovarian
DU-145 prostate = test system: DU-145 prostate
HCT-116 colon = test system: HCT-116 colon
HT29 colon = test system: HT29 colon
COLO 205 colon = test system: COLO 205 colon
NCI-H226 lung = test system: NCI-H226 lung
U251 CNS = test system: U251 CNS
KM12 colon = test system: KM12 colon
A498 renal = test system: A498 renal
UACC-257 melanoma = test system: UACC-257 melanoma
MOLT-4 leukemia = test system: MOLT-4 leukemia
CCRF-CEM leukemia = test system: CCRF-CEM leukemia
HCT-15 colon = test system: HCT-15 colon
NCI-H460 lung = test system: NCI-H460 lung
NCI-H23 lung = test system: NCI-H23 lung
ACHN renal = test system: ACHN renal
SW-620 colon = test system: SW-620 colon
SK-MEL-5 melanoma = test system: SK-MEL-5 melanoma
A549 NSCLC = test system: A549 NSCLC
SK-MEL-2 melanoma = test system: SK-MEL-2 melanoma
M14 melanoma = test system: M14 melanoma
LOX IMVI melanoma = test system: LOX IMVI melanoma
CAKI-1 renal = test system: CAKI-1 renal
RPMI-8226 leukemia = test system: RPMI-8226 leukemia
T-47D breast = test system: T-47D breast
HL-60(TB) leukemia = test system: HL-60(TB) leukemia
HCC-2998 colon = test system: HCC-2998 colon
SF-539 CNS = test system: SF-539 CNS

N#C/C(=C\c1ccc(-c2ccc(Cl)cc2)o1)C(=O)Nc1ncc(Cc2ccc(Br)cc2)s1
GI50 (SF-268 CNS): 3730 nM | TGI (SF-268 CNS): > 100 µM | GI50 (MDA-MB-231 breast): 3380 nM | TGI (MDA-MB-231 breast): > 100 µM | GI50 (NCI-H522 lung): 2640 nM | TGI (NCI-H522 lung): > 100000 nM | GI50 (SF-295 CNS): 5220 nM | TGI (SF-295 CNS): 51.5 µM | GI50 (HOP-62 NSCLC): 2470 nM | TGI (HOP-62 NSCLC): > 100 µM | GI50 (UACC-62 melanoma): 2950 nM | TGI (UACC-62 melanoma): > 100000 nM | GI50 (SNB-75 CNS): 794 nM | TGI (SNB-75 CNS): 3.83 µM | GI50 (HS 578T breast): 1230 nM | TGI (HS 578T breast): 6.27 µM | GI50 (K-562 leukemia): 4470 nM | TGI (K-562 leukemia): > 100 µM | GI50 (SK-OV-3 ovarian): 3920 nM | TGI (SK-OV-3 ovarian): 25.9 µM | GI50 (BT-549 breast): 1840 nM | TGI (BT-549 breast): 8.69 µM | GI50 (IGROV1 ovarian): 2890 nM | TGI (IGROV1 ovarian): > 100000 nM | GI50 (HOP-92 NSCLC): 1130 nM | TGI (HOP-92 NSCLC): 8.28 µM | GI50 (SNB-19 CNS): 3580 nM | TGI (SNB-19 CNS): > 100 µM | GI50 (MALME-3M melanoma): 1550 nM | TGI (MALME-3M melanoma): 4.26 µM | GI50 (786-0 renal): 2450 nM | TGI (786-0 renal): 6.8 µM | GI50 (RXF 393 renal): 8.85 µM | TGI (RXF 393 renal): 33.7 µM

CC[C@]12C=CCN3CC[C@]4(C(=C(C(=O)OC)C1)Nc1cc5c(cc14)[C@@H]1[C@H](O5)[C@@H](O)[C@@]4(CC)CC(C(=O)OC)=C5Nc6cc(OC)ccc6[C@@]56CCN1[C@@H]46)[C@@H]32
GI50 (SF-268 CNS): 343 nM | TGI (SF-268 CNS): 11.7 µM | GI50 (MDA-MB-231 breast): 163 nM | TGI (MDA-MB-231 breast): > 11.4 µM | GI50 (EKVX NSCLC): 253 nM | TGI (EKVX NSCLC): 12.3 µM | GI50 (TK-10 renal): 128 nM | TGI (TK-10 renal): 1050 nM | GI50 (MDA-MB-435): 173 nM | TGI (MDA-MB-435): 1460 nM | GI50 (SN12C renal): 236 nM | TGI (SN12C renal): 5.96 µM | GI50 (NCI-H522 lung): 109 nM | TGI (NCI-H522 lung): 349 nM | GI50 (PC-3 prostate): 225 nM | TGI (PC-3 prostate): 5.14 µM | GI50 (OVCAR-5 ovarian): 294 nM | TGI (OVCAR-5 ovarian): 5.34 µM | GI50 (SR leukemia): 137 nM | TGI (SR leukemia): 2820 nM | GI50 (SK-MEL-28 melanoma): 457 nM | TGI (SK-MEL-28 melanoma): 3.26 µM | GI50 (UO-31 renal): 131 nM | TGI (UO-31 renal): 2180 nM | GI50 (SF-295 CNS): 250 nM | TGI (SF-295 CNS): 13.8 µM | GI50 (MCF7 breast): 121 nM | TGI (MCF7 breast): > 16.5 µM | GI50 (HOP-62 NSCLC): 189 nM | TGI (HOP-62 NSCLC): 3.12 µM | GI50 (UACC-62 melanoma): 103 nM | TGI (UACC-62 melanoma): 1630 nM | GI50 (SNB-75 CNS): 345 nM | TGI (SNB-75 CNS): 4.44 µM | GI50 (OVCAR-8 ovarian): 199 nM | TGI (OVCAR-8 ovarian): 2470 nM | GI50 (OVCAR-4 ovarian): 181 nM | TGI (OVCAR-4 ovarian): > 50 µM | GI50 (HS 578T breast): 211 nM | TGI (HS 578T breast): > 50 µM | GI50 (NCI/ADR-RES ovarian): 388 nM | TGI (NCI/ADR-RES ovarian): > 50 µM | GI50 (DU-145 prostate): 591 nM | TGI (DU-145 prostate): > 20.4 µM | GI50 (HCT-116 colon): 102 nM | TGI (HCT-116 colon): 352 nM | GI50 (HT29 colon): 161 nM | TGI (HT29 colon): 1810 nM | GI50 (COLO 205 colon): 108 nM | TGI (COLO 205 colon): 437 nM | GI50 (NCI-H226 lung): 160 nM | TGI (NCI-H226 lung): 4.3 µM | GI50 (U251 CNS): 174 nM | TGI (U251 CNS): 877 nM | GI50 (K-562 leukemia): 117 nM | TGI (K-562 leukemia): > 50 µM | GI50 (KM12 colon): 231 nM | TGI (KM12 colon): 3.23 µM | GI50 (A498 renal): 98 nM | TGI (A498 renal): 299 nM | GI50 (UACC-257 melanoma): 183 nM | TGI (UACC-257 melanoma): 3.72 µM | GI50 (MOLT-4 leukemia): 190 nM | TGI (MOLT-4 leukemia): > 50 µM | GI50 (CCRF-CEM leukemia): 161 nM | TGI (CCRF-CEM leukemia): > 50 µM | GI50 (SK-OV-3 ovarian): 167 nM | TGI (SK-OV-3 ovarian): 0.706 µM | GI50 (HCT-15 colon): 137 nM | TGI (HCT-15 colon): 511 nM | GI50 (BT-549 breast): 230 nM | TGI (BT-549 breast): 2.22 µM | GI50 (NCI-H460 lung): 407 nM | TGI (NCI-H460 lung): 5.55 µM | GI50 (NCI-H23 lung): 171 nM | TGI (NCI-H23 lung): 805 nM | GI50 (IGROV1 ovarian): 152 nM | TGI (IGROV1 ovarian): 2010 nM | GI50 (ACHN renal): 174 nM | TGI (ACHN renal): 690 nM | GI50 (HOP-92 NSCLC): 70.9 nM | TGI (HOP-92 NSCLC): 4.05 µM | GI50 (SNB-19 CNS): 300 nM | TGI (SNB-19 CNS): 14.9 µM | GI50 (SW-620 colon): 177 nM | TGI (SW-620 colon): 1260 nM | GI50 (SK-MEL-5 melanoma): 227 nM | TGI (SK-MEL-5 melanoma): 2980 nM | GI50 (A549 NSCLC): 368 nM | TGI (A549 NSCLC): 6.94 µM | GI50 (SK-MEL-2 melanoma): 229 nM | TGI (SK-MEL-2 melanoma): 2930 nM | GI50 (MALME-3M melanoma): 187 nM | TGI (MALME-3M melanoma): 3.8 µM | GI50 (M14 melanoma): 163 nM | TGI (M14 melanoma): 3.14 µM | GI50 (LOX IMVI melanoma): 29.6 nM | TGI (LOX IMVI melanoma): 105 nM | GI50 (CAKI-1 renal): 87.7 nM | TGI (CAKI-1 renal): 2130 nM | GI50 (RPMI-8226 leukemia): 133 nM | TGI (RPMI-8226 leukemia): 576 nM | GI50 (T-47D breast): 155 nM | TGI (T-47D breast): 1330 nM | GI50 (786-0 renal): 92.9 nM | TGI (786-0 renal): 1.07 µM | GI50 (HL-60(TB) leukemia): 58.3 nM | GI50 (HCC-2998 colon): 130 nM | TGI (HCC-2998 colon): 557 nM | GI50 (RXF 393 renal): 0.15 µM | TGI (RXF 393 renal): 0.613 µM | GI50 (SF-539 CNS): 147 nM | TGI (SF-539 CNS): 1330 nM
